From patent publication US11754555B2, “Pad for immunochromatographic device and immunochromatographic device, immunochromatographic kit and immunochromatographic detection method using pad” (TANAKA KIKINZOKU KOGYO K.K., priority 2018, dated 2023)

Legend:
[1] = test system: inactivated Group A β-hemolytic streptococcus; assay: Visual evaluation of red line on detection part of immunochromatographic device; settings: for Result of Visual Evaluation (After Storage at 50° C. for 24 Hours): device stored at 50° C. for 24 hours, then positive analyte sample 5×10^5 org/mL, 5 minutes; for Result of Visual Evaluation (After 5 Minutes): positive analyte sample 5×10^5 org/mL, 150 μL, member order of FIG. 3, acid content per pad as in Table 1
Method: (§1) The immunochromatographic device and the analyte dilution solution produced above were used, and a sample obtained by adding inactivated Group A β-hemolytic streptococcus at 5×10^5 org/mL was used as a positive analyte sample.
The analyte sample in an amount of 150 μL was dropped to the sample droplet receiving part of the device and developed, and a visual evaluation was made after 5 minutes. Any of the following marks was given: “+” (positive) when the red line on the detection part (4) could be visually observed; “++” (strong positive) when the red line could be visually observed clearly; “±” (weak positive) when a light red line could be visually observed; and “−” (negative) when the red line could not be visually observed.
Separately from the above evaluation, the immunochromatographic device produced above were stored at 50° C. for 24 hours, and then the measurement and the visual evaluation were conducted. […]
Immunochromatographic kits were produced and measurement was conducted in the same manners as in Example 1 except that the kind of the acid anhydride in Example 1 was changed to those shown in Table 1.

[2] = Sublimation at 25° C. at 20 Pa (weight change after 12 hours under reduced pressure); assay type: physicochemical; settings: 1 g acid, reduced pressure 25° C., weight change within or exceeding 5%
Method: Whether the acids used in the Examples and the Comparative Examples sublimate at 25° C. at 20 Pa was examined by the following method. First, 1 g of an acid was measured in a glass vial, and the weight was measured after subjecting the acid to reduced pressure at 25° C. at 20 Pa for 12 hours.

[3] = test system: inactivated Group A β-hemolytic streptococcus; assay: Color intensity of red line on detection part measured with immunochromatoreader
Method: as §1
The color intensity of the red line on the detection part (4) five minutes after starting development was measured with an immunochromatoreader (manufactured by Hamamatsu Photonics K.K.). As a result, the color intensity was 83.7 mAbs.
An immunochromatographic kit was produced in the same manner as in Example 1 except that the sample droplet receiving member (1), the acid anhydride containing member (7), the labeling substance retaining member (2), the chromatography medium member (3) having the detection part (4) and the absorption member (5) were pasted to a base material composed of a backing sheet (6) in a manner that the members were linked in this order along the direction of sample development (the order shown in FIG. 1), and the color intensity was measured with an immunochromatoreader (manufactured by Hamamatsu Photonics K.K.). As a result, the color intensity after five minutes was 48.1 mAbs.
An immunochromatographic kit was produced in the same manner as in Example 3 except that “malic acid” was used instead of “bicyclo[2,2,2]oct-7-ene-2,3,5,6-tetracarboxylic dianhydride”, which is the acid anhydride, and the color intensity after five minutes was measured with an immunochromatoreader (manufactured by Hamamatsu Photonics K.K.). As a result, the color intensity was 4.1 mAbs.

[4] = five minutes after starting development, member order of FIG. 3 (acid-containing member downstream of labeling member)

octadecenylsuccinic anhydride [Reference Example 2]
Result of Visual Evaluation (After Storage at 50° C. for 24 Hours) [1]: ±
Result of Visual Evaluation (After 5 Minutes) [1]: ±
Sublimation at 25° C. at 20 Pa [2]: A (“A” indicates that the acid did not sublimate)

O=C1CC(C2CC3C(=O)OC(=O)C3c3ccccc32)C(=O)O1 (stereo not drawn) [Example 6, 4-(2,5-dioxotetrahydrofuran-3-yl)-1,2,3,4-tetrahydronaphthalene-1,2-dicarboxylic anhydride]
Result of Visual Evaluation (After Storage at 50° C. for 24 Hours) [1]: ++
Result of Visual Evaluation (After 5 Minutes) [1]: ++
Sublimation at 25° C. at 20 Pa [2]: A (“A” indicates that the acid did not sublimate)

O=C(O)CN(CCO)CCO [compound 5, N,N-bis(2-hydroxyethyl)glycine]
Result of Visual Evaluation (After Storage at 50° C. for 24 Hours) [1]: −
Result of Visual Evaluation (After 5 Minutes) [1]: −

N[C@@H](CCC(=O)O)C(=O)O [compound 7, glutamic acid]
Result of Visual Evaluation (After Storage at 50° C. for 24 Hours) [1]: −
Result of Visual Evaluation (After 5 Minutes) [1]: −

O=C1OC(=O)[C@@H]2CC=CC[C@H]12 [Comparative Example 9, cis-4-cyclohexene-1,2-dicarboxylic anhydride]
Result of Visual Evaluation (After Storage at 50° C. for 24 Hours) [1]: −
Result of Visual Evaluation (After 5 Minutes) [1]: +
Sublimation at 25° C. at 20 Pa [2]: A (“A” indicates that the acid did not sublimate)

CCCCCCCC/C=C\CCCCCCCC(=O)O [compound 6, oleic acid]
Result of Visual Evaluation (After Storage at 50° C. for 24 Hours) [1]: −
Result of Visual Evaluation (After 5 Minutes) [1]: −

O=C1OC(=O)C2C3C=CC(C12)C1C(=O)OC(=O)C31 (stereo not drawn) [Example 1, bicyclo[2,2,2]oct-7-ene-2,3,5,6-tetracarboxylic dianhydride]
Result of Visual Evaluation (After Storage at 50° C. for 24 Hours) [1]: ++
Result of Visual Evaluation (After 5 Minutes) [1]: ++
color intensity of the red line on the detection part (4) ([3]; after five minutes, member order of FIG. 1 (acid anhydride member upstream of labeling member)): 48.1 mAbs
color intensity of the red line on the detection part (4) [3, 4]: 83.7 mAbs
Sublimation at 25° C. at 20 Pa [2]: A (“A” indicates that the acid did not sublimate)

O=C(O)CC(O)C(=O)O (stereo not drawn) [compound 3, malic acid]
Result of Visual Evaluation (After Storage at 50° C. for 24 Hours) [1]: −
Result of Visual Evaluation (After 5 Minutes) [1]: −
color intensity of the red line on the detection part (4) [3, 4]: 4.1 mAbs

CC#Cc1ccc2c(c1)C(=O)OC2=O [Example 3, 4-(1-propynyl)phthalic anhydride]
Result of Visual Evaluation (After Storage at 50° C. for 24 Hours) [1]: +
Result of Visual Evaluation (After 5 Minutes) [1]: +
Sublimation at 25° C. at 20 Pa [2]: A (“A” indicates that the acid did not sublimate)

O=C1CCC(=O)O1 [compound 2, succinic anhydride]
Result of Visual Evaluation (After Storage at 50° C. for 24 Hours) [1]: −
Result of Visual Evaluation (After 5 Minutes) [1]: ++
Sublimation at 25° C. at 20 Pa [2]: B (“B” indicates that the acid sublimated)

O=C1CC(c2ccccc2)C(=O)O1 (stereo not drawn) [compound 8, phenylsussinic acid anhydride]
Result of Visual Evaluation (After Storage at 50° C. for 24 Hours) [1]: −
Result of Visual Evaluation (After 5 Minutes) [1]: +
Sublimation at 25° C. at 20 Pa [2]: A (“A” indicates that the acid did not sublimate)

O=C1OC(=O)C2CC3C(=O)OC(=O)C3CC12 (stereo not drawn) [Example 5, 1,2,4,5-cyclohexanetetracarboxylic dianhydride]
Result of Visual Evaluation (After Storage at 50° C. for 24 Hours) [1]: ++
Result of Visual Evaluation (After 5 Minutes) [1]: ++
Sublimation at 25° C. at 20 Pa [2]: A (“A” indicates that the acid did not sublimate)

O=c1oc(=O)c2cc3c(=O)oc(=O)c3cc12 [Example 2, pyromellitic anhydride]
Result of Visual Evaluation (After Storage at 50° C. for 24 Hours) [1]: ++
Result of Visual Evaluation (After 5 Minutes) [1]: ++
Sublimation at 25° C. at 20 Pa [2]: A (“A” indicates that the acid did not sublimate)

O=C(ON1C(=O)CCC1=O)c1ccccc1 [Comparative Example 1, N-(benzoyloxy)succinimide]
Result of Visual Evaluation (After Storage at 50° C. for 24 Hours) [1]: −
Result of Visual Evaluation (After 5 Minutes) [1]: −

C=C(CC(=O)O)C(=O)O [compound 4, itaconic acid]
Result of Visual Evaluation (After Storage at 50° C. for 24 Hours) [1]: −
Result of Visual Evaluation (After 5 Minutes) [1]: −

CC(=O)Nc1cccc2c1C(=O)OC2=O [Example 4, 3-acetamidophthalic anhydride]
Result of Visual Evaluation (After Storage at 50° C. for 24 Hours) [1]: +
Result of Visual Evaluation (After 5 Minutes) [1]: +
Sublimation at 25° C. at 20 Pa [2]: A (“A” indicates that the acid did not sublimate)
